{"source": "paper PMC6264278", "about": "“Corydaline Inhibits Multiple Cytochrome P450 and UDP-Glucuronosyltransferase Enzyme Activities in Human Liver Microsomes” (Molecules, 2011)", "key": {"[1]": {"target": "T1, UGT1A1 (Homo sapiens, UniProt P22309)", "T1 construct": "using pooled human liver microsomes; tissue BD Gentest Co. H161; host or cells: pooled human liver microsomes", "T1 sequence (P22309 26-533)": "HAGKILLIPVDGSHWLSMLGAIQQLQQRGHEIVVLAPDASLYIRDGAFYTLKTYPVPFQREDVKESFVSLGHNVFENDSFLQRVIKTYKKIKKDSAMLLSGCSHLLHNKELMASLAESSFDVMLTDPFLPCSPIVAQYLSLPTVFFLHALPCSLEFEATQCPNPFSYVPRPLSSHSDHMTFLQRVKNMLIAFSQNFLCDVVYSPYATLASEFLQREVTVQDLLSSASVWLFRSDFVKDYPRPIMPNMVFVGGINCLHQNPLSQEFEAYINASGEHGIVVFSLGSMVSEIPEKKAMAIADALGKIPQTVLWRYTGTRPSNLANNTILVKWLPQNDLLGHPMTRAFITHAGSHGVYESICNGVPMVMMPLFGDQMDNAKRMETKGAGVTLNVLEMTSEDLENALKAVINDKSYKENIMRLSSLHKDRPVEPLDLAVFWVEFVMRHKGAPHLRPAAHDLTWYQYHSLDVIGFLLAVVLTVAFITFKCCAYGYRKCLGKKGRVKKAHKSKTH", "assay": "UGT1A1 17β-estradiol 3-glucuronidation inhibition in pooled human liver microsomes", "type": "in vitro ADME", "description": "(§1) The inhibitory potencies (IC50 values) of corydaline were also determined with UGT assays in the presence and absence of corydaline (final concentrations of 1–1,000 μM with acetonitrile concentration less than 0.5% v/v) using pooled human liver microsomes. 17β-Estradiol 3-glucuronidation, trifluoperazine glucuronidation, propofol glucuronidation, and azidothymidine glucuronidation activities were determined as probe activities for UGT1A1, UGT1A4, UGT1A9, and UGT2B7, respectively, using LC/MS/MS. Incubation mixtures were prepared in a total volume of 100 μL, as follows: Pooled human liver microsomes (0.2 mg/mL for 17β-estradiol, trifluoperazine and azidothymidine; 0.1 mg/mL for propofol), 2 mM UDPGA, 25 μg/mL alamethicin, 10 mM MgCl2, 50 mM tris buffer (pH 7.4), UGT-isoform specific probe substrate (20 μM 17β-estradiol for UGT1A1, 5 μM trifluoperazine for UGT1A4, 10 μM propofol for UGT1A9, or 100 μM azidothymidine for UGT2B7), and various concentrations of corydaline (1−1000 μM). Reactions were initiated by addition of UDPGA, and incubations were carried out at 37 °C in a shaking water bath for 30 min. […]\nGlucuronides produced from UGT isoform-specific substrates were respectively determined by LC/MS/MS. […] Quantification was performed by SRM of the [M+H]^+ ion for trifluoperazine glucuronide and azidothymidine glucuronide or [M−H]^− for 17β-estradiol 3-glucuronide and propofol glucuronide and the related product ion for each metabolite.\nReactions were initiated by addition of NADPH at 37 °C and stopped after 15 min by placement of the incubation tubes on ice and addition of ice-cold methanol (100 μL) containing an internal standard (2.0 μg/mL ^13C6-4-hydroxydiclofenac for diclofenac, 0.5 μg/mL d3-4-hydroxymephenytoin for mephenytoin, or 0.5 μg/mL d9-1-hydroxy-bufuralol for bufuralol). The incubation mixtures were centrifuged at 13,000 × g for 5 min, and aliquots (5 μL) of the supernatants were analyzed by LC/MS/MS. […] Aliquots (5 μL) were analyzed by LC/MS/MS. […]"}, "[2]": {"target": "T2, UGT1A4 (Homo sapiens, UniProt P22310)", "T2 construct": "using pooled human liver microsomes; tissue BD Gentest Co. H161; host or cells: pooled human liver microsomes", "T2 sequence (P22310 29-534)": "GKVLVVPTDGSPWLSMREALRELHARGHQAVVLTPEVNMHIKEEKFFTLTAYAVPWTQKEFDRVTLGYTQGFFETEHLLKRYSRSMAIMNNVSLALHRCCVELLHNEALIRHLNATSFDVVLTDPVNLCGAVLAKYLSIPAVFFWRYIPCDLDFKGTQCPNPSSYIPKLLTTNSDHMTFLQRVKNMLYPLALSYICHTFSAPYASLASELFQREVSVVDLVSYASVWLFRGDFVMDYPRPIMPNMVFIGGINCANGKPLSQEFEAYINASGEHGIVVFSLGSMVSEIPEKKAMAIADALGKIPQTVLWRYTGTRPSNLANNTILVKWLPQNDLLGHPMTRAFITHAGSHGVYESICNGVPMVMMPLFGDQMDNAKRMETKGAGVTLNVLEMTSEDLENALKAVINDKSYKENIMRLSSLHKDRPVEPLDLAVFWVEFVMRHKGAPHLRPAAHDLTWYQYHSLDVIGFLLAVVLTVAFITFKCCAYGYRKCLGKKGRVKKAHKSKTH", "assay": "UGT1A4 trifluoperazine N-glucuronidation inhibition in pooled human liver microsomes", "type": "in vitro ADME", "conditions": "pooled human liver microsomes (H161), 5 μM trifluoperazine, no inhibition at 1,000 μM of corydaline", "description": "as §1, with “μM).” for “μM). Reactions were initiated by addition of UDPGA, and incubations were carried out at 37 °C in a shaking water bath for 30 min.”\nGlucuronides produced from UGT isoform-specific substrates were respectively determined by LC/MS/MS. […] Quantification was performed by SRM of the [M+H]^+ ion for trifluoperazine glucuronide and azidothymidine glucuronide or [M−H]^− for 17β-estradiol 3-glucuronide and propofol glucuronide and the related product ion for each metabolite. […]"}}}
{"smiles": "COc1cc2c(cc1OC)C1C(C)c3ccc(OC)c(OC)c3CN1CC2", "note": "(centres unmarked) [Corydaline, 2,3,9,10-tetramethoxy-13-methyl-5,8,13,13a-tetrahydro-6H-isoquino[3,2-a]isoquinoline]", "values": [{"measurement": "Ki", "setting": "[1]; human liver microsomes, 10-80 μM 17β-estradiol, mixed competitive-noncompetitive equation", "value": "57.6 ± 13", "unit": "µM"}, {"measurement": "α (mix of competitive and noncompetitive mechanisms), UGT1A1 17β-estradiol 3-glucuronidation", "setting": "[1]; mixed competitive-noncompetitive equation, nonlinear regression", "value": 0.555}, {"measurement": "IC50", "setting": "[1]; pooled human liver microsomes (H161), 20 μM 17β-estradiol, mean ± SD, n = 3", "value": "137 ± 16.2", "unit": "µM"}, {"measurement": "IC50, UGT1A4 trifluoperazine N-glucuronidation", "setting": "[2]", "value": "not inhibited"}, {"measurement": "IC50, UGT1A4 trifluoperazine N-glucuronidation", "setting": "[2]; listed as corydaline", "value": "No inhibition *"}]}
